Assay results from patent US7067251B2 (priority 2000, dated 2006).

Key:
vaccinia WR = assay type: cell-based, vaccinia virus
vEL/tk = assay type: cell-based, vaccinia virus
v7.5/tk = assay type: cell-based, vaccinia virus
[1] = system: Mouse splenic T cells activated by plate bound anti-CD3 antibody; settings: cited from earlier work
naïve T cells = assay type: cell-based, Human

Structure (SMILES) | Concentration sufficient to interfere with the ability to plaque (vaccinia WR) [mM] | Concentration sufficient to inhibit plaque formation (vEL/tk) [mM] | Plaque formation (vEL/tk) | Viability of the cells (Hutk^− cell line) | Concentration sufficient to inhibit plaque formation (v7.5/tk) [mM] | T cell death [1] [%] | Killing of the total number of T cells (naïve T cells) [%]
O=c1[nH]c(=O)n([C@H]2C[C@H](O)[C@@H](CO)O2)cc1Br [bromodeoxyuridine] | 25 | 125 | an equal number of plaques, albeit much smaller in size | does not interfere with the viability of the cells | 125 |  | 
Cn1cc(C2=C(c3cn(CCCN)c4ccccc34)C(=O)NC2=O)c2ccccc21 [Bis VIII, Bisindolylmaleimide VIII] |  |  |  |  |  | ~100 | 95
